In US11352359B2, “PI3K protein kinase inhibitors” (Rhizen Pharmaceuticals SA, priority 2013, dated 2022) one finds inhibition, melting point and IC50 data, which are given here for nine compounds.

The term inhibition denotes how much of the control response was suppressed. The low end stands for a weak effect, the high end for a strong effect. One may read the melting point as the temperature of the solid-liquid transition. What is called IC50 is the concentration that inhibits the measured activity by half.

One series deals with PI3Kδ (Homo sapiens, UniProt O00329). Description: Fluorescent determination of PI3Kinase enzyme activity (HTRF), PI3Kδ. Format: biochemical. The following applies: for inhibition at 0.1 µM: 100 nM (underlined values: 300 nM). From the text: (§1) Fluorescent Determination of PI3Kinase Enzyme Activity
Sequence of PI3Kδ (O00329 whole entry, canonical isoform): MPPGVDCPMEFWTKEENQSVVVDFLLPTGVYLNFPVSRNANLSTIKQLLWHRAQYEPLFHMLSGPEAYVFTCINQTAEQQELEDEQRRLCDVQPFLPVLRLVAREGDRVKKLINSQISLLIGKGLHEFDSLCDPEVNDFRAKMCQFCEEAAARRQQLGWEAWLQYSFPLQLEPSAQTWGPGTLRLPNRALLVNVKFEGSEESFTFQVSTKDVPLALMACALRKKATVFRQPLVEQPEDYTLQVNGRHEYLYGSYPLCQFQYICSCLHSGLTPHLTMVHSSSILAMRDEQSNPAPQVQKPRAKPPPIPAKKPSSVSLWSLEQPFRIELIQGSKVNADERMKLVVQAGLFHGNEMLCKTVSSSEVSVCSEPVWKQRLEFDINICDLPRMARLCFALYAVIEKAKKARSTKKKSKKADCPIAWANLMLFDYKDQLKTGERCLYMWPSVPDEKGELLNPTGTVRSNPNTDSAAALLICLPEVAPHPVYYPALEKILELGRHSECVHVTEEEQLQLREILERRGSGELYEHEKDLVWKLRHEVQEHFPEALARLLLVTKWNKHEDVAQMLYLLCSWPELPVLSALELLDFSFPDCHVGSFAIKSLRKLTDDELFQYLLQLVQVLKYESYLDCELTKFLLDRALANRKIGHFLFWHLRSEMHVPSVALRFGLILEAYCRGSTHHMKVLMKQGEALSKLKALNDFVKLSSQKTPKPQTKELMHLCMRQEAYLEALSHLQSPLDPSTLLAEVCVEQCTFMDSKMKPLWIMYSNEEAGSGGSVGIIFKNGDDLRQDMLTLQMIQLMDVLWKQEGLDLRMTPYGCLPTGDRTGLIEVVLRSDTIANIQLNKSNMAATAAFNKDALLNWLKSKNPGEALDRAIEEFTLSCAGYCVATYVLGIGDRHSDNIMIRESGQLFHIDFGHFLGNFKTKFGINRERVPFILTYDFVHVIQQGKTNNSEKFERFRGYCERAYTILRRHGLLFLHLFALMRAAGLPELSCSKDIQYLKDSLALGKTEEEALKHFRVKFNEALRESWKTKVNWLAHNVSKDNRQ
Sequence of PI3Kδ (P27986 whole entry partner, canonical isoform): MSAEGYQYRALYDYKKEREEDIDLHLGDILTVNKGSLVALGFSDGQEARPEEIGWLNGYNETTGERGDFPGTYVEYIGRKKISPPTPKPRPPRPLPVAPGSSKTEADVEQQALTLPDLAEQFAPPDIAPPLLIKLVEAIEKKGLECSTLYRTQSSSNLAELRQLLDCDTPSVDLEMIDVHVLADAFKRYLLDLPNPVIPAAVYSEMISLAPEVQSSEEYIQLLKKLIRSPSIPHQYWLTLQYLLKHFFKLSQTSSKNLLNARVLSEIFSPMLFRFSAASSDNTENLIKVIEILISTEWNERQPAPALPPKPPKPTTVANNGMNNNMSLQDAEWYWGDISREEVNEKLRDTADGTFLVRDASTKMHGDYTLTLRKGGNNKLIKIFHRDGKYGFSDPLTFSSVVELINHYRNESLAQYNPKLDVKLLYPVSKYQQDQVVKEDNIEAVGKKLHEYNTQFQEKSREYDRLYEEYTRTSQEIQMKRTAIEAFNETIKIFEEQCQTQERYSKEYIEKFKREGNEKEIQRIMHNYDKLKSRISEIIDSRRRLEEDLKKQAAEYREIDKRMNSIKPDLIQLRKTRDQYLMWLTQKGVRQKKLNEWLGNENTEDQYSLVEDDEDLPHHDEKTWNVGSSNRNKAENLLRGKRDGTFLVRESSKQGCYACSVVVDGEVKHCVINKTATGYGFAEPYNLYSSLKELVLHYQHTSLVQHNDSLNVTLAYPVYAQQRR
(§2) Phosphoinositide 3 kinases (PI3K) belong to a class of Lipid kinases that play a critical role in the regulation of several key cellular processes. The PI3K are capable of phosphorylating the 3-hydroxy position of phosphoinositols thereby generating second messengers involved in downstream signalling events. The homogenous time resolved fluorescence (HTRF) assay allows detection of 3,4,5-triphosphate (PIP3) formed as a result of phosphorylation of phosphotidylinositol 4,5-biphosphate (PIP2) by PI3K isoforms such as α, […], γ or δ.
(§3) PI3K isoform activity for α, β, γ or δ is to be determined using a PI3K human HTRF™ Assay Kit (Millipore, Billerica, Mass.) with modifications. All incubations were carried out at room temperature. Briefly, 0.5 μl of 40× inhibitor (in 100% DMSO) or 100% DMSO were added to each well of a 384-well black plate (Greiner Bio-One, Monroe, N.C.) containing 14.5 μl 1× reaction buffer/PIP2 (10 mM MgCl2, 5 mM DTT, 1.38 μM PIP2) mix with or without enzyme and incubated for 10 min. After the initial incubation, 5 μl/well of 400 μM ATP was added and incubated for an additional 30 minutes. Reaction was terminated by adding 5 μl/well stop solution (Millipore, Billerica, Mass.). Five microliters of detection mix (Millipore, Billerica, Mass.) were then added to each well and was incubated for 6-18 h in the dark. HRTF ratio was measured on a microplate reader (BMG Labtech, Germany) at an excitation wavelength of 337 nm and emission wavelengths of 665 and 620 nm with an integration time of 400 μsec. Data was analyzed using Graphpad Prism (Graphpad software; San Diego Calif.) for IC50 determination).

Another series deals with PI3Kγ (Homo sapiens, UniProt P48736). Description: Fluorescent determination of PI3Kinase enzyme activity (HTRF), PI3Kγ. Format: biochemical. Conditions: for inhibition at 0.1 µM: 100 nM (underlined values: 300 nM).
Sequence of PI3Kγ (P48736 whole entry): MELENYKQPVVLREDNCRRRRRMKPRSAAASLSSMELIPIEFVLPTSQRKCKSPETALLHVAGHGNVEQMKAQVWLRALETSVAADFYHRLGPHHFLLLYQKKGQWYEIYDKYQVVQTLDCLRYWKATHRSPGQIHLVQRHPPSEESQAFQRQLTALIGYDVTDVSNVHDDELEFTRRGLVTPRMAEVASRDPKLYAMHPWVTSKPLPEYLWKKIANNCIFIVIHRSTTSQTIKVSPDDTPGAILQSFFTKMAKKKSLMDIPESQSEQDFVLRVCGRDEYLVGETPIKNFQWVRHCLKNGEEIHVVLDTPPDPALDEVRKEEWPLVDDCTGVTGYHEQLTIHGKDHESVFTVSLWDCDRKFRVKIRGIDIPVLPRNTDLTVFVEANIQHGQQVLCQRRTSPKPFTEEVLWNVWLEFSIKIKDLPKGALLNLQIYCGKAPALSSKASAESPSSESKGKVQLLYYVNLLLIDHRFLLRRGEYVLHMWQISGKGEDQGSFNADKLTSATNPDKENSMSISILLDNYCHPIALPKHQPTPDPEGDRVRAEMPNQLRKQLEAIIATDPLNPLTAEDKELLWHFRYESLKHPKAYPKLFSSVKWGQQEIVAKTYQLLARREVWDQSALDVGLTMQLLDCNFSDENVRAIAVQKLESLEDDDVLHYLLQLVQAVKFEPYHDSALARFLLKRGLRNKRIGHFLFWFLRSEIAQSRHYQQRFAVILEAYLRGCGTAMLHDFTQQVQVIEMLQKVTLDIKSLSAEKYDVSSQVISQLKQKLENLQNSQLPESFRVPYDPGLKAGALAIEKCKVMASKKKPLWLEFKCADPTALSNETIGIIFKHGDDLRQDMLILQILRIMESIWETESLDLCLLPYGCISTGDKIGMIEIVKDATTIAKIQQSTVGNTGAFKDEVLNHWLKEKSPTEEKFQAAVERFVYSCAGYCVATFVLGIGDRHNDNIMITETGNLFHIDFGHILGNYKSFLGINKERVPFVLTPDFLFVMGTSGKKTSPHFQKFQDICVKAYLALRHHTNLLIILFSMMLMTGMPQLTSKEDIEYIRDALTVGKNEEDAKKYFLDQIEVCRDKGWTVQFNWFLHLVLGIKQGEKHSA
Source text: as §1, §2, §3

Another series has as its target PI3Kα (Homo sapiens, UniProt P42336). Briefly: Fluorescent determination of PI3Kinase enzyme activity (HTRF), PI3Kα. It counts as biochemical.
Source text: as §1, §2, §3

A further series has as its target PI3Kβ (Homo sapiens, UniProt P42338). Briefly: Fluorescent determination of PI3Kinase enzyme activity (HTRF), PI3Kβ. It counts as biochemical.
Source text: as §1, §2, §3
A general note: In TR-FRET formats the signal depends on donor and acceptor labels being close together.

Sequence of PI3Kβ (P42338 whole entry): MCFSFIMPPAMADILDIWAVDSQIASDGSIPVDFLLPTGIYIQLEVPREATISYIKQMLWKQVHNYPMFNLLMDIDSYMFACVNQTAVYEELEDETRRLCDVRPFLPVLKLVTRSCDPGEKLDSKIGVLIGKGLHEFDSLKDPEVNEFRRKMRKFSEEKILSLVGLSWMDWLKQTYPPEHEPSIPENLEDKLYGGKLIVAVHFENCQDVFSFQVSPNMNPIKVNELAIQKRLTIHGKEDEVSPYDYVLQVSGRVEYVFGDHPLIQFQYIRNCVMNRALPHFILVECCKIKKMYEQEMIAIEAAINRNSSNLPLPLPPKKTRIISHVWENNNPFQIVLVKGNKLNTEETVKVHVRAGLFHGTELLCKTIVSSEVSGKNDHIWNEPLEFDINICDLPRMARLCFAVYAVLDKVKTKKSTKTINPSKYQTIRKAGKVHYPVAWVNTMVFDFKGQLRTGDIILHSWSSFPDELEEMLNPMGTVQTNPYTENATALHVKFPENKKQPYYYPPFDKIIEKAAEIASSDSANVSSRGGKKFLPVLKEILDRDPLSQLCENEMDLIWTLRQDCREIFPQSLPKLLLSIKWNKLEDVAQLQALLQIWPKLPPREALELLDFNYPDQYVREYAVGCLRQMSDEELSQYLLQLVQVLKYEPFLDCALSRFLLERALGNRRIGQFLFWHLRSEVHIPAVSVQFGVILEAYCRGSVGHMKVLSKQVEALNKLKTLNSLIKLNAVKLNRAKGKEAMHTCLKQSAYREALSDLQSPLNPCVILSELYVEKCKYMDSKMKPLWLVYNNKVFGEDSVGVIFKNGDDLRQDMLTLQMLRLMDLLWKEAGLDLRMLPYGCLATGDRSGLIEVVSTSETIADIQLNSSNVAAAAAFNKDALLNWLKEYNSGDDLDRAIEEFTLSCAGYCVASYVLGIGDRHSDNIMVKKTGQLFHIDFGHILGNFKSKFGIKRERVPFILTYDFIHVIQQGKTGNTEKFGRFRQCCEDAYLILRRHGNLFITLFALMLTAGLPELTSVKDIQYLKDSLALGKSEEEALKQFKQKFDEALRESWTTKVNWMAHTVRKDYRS
Sequence of PI3Kβ (P27986 whole entry partner): as the sequence (P27986 whole entry partner, canonical isoform) above
Sequence of PI3Kα (P42336 whole entry): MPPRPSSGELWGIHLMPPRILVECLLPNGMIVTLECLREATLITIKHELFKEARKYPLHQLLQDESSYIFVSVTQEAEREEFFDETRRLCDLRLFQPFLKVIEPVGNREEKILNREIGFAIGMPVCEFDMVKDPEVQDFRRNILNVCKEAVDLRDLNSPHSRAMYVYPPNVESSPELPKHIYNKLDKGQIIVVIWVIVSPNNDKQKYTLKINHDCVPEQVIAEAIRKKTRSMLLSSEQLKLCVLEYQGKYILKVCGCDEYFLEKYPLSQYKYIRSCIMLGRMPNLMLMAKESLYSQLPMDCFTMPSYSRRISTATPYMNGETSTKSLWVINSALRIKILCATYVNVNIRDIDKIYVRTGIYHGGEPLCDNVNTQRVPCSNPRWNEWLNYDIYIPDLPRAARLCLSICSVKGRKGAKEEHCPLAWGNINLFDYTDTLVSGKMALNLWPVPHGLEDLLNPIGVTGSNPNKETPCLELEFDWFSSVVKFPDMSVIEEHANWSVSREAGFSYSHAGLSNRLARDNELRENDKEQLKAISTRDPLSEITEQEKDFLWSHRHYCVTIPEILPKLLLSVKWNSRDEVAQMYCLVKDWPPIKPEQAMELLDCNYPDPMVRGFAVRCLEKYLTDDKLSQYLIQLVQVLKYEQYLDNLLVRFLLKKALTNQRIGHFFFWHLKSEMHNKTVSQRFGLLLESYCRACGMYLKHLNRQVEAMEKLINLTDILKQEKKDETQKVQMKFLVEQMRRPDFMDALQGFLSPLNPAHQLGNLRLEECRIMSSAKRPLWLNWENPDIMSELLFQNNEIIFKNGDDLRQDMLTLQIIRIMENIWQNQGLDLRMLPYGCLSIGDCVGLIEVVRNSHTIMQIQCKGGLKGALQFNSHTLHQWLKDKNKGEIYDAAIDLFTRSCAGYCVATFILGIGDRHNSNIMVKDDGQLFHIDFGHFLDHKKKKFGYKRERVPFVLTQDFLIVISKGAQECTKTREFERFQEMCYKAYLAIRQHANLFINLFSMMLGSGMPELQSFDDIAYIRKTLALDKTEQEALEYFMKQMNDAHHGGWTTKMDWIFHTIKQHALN
Sequence of PI3Kα (P27986 whole entry partner): as the sequence (P27986 whole entry partner, canonical isoform) above

The compound `C[C@H](c1cc2cccc(Cl)c2c(=O)n1-c1ccccc1)n1nc(-c2ccc(O)c(F)c2)c2c(N)ncnc21` [Example 14b, (−)-3-(1-(4-amino-3-(3-fluoro-4-hydroxyphenyl)-1H-pyrazolo[3,4-d]pyrimidin-1-yl)ethyl)-8-chloro-2-phenylisoquinolin-1(2H)-one] showed a melting point of 215 to 219 °C. Besides, the inhibition at 0.1 µM against PI3Kδ was in the range of 60 to 80%. Also, on PI3Kγ, the inhibition at 0.1 µM lay in the range of 20 to 40%. On PI3Kα, this compound returned an inhibition at 1 µM of 0 to 10%. Also, the inhibition at 1 µM at PI3Kβ was in the range of 20 to 40%.

`CC(c1cc2cccc(F)c2c(=O)n1-c1ccccc1)n1nc(-c2ccc(O)c(F)c2)c2c(N)ncnc21` (centres unmarked) [Example 15, 3-(1-(4-amino-3-(3-fluoro-4-hydroxyphenyl)-1H-pyrazolo[3,4-d]pyrimidin-1-yl)ethyl)-8-fluoro-2-phenylisoquinolin-1(2H)-one] came in with a melting point of 228 to 229 °C. The inhibition at 0.1 µM at PI3Kδ was in the range of 40 to 60%. For the same compound, at PI3Kγ, the inhibition at 0.1 µM fell in the range of 40 to 60%. The inhibition at 1 µM against PI3Kα was in the range of 0 to 10%. Further, the inhibition at 1 µM on PI3Kβ lay in the range of 20 to 40%.

Compound `C[C@H](c1cc2cccc(F)c2c(=O)n1-c1ccccc1)n1nc(-c2ccc(O)c(F)c2)c2c(N)ncnc21` [Example 15b, (−)-3-(1-(4-amino-3-(3-fluoro-4-hydroxyphenyl)-1H-pyrazolo[3,4-d]pyrimidin-1-yl)ethyl)-8-fluoro-2-phenylisoquinolin-1(2H)-one] showed a melting point of 258 to 260 °C. This compound also registered an inhibition at 0.1 µM on PI3Kδ of 20 to 40%. The inhibition at 0.1 µM at PI3Kγ fell in the range of 0 to 20%. The compound further displayed an inhibition at 1 µM at PI3Kα of 0 to 10%. Further, the inhibition at 1 µM on PI3Kβ lay within 0 to 10%.

As to `CC(c1nc2cccc(F)c2c(=O)n1-c1ccccc1)n1nc(-c2ccc(O)c(F)c2)c2c(N)ncnc21` (centres unmarked) [Example 16, 2-(1-(4-amino-3-(3-fluoro-4-hydroxyphenyl)-1H-pyrazolo[3,4-d]pyrimidin-1-yl)ethyl)-5-fluoro-3-phenylquinazolin-4(3H)-one], the melting point is 212 to 214 °C. Also, the inhibition at 0.1 µM on PI3Kδ lay in the range of 40 to 60%. For the same compound, the inhibition at 0.1 µM on PI3Kγ is 40 to 60%. In addition, at PI3Kα, the inhibition at 1 µM lay in the range of 0 to 10%. The same compound gave an inhibition at 1 µM on PI3Kβ of 60 to 80%.

The compound `C[C@H](c1nc2cccc(F)c2c(=O)n1-c1ccccc1)n1nc(-c2ccc(O)c(F)c2)c2c(N)ncnc21` [Example 16b, (−)-2-(1-(4-amino-3-(3-fluoro-4-hydroxyphenyl)-1H-pyrazolo[3,4-d]pyrimidin-1-yl)ethyl)-5-fluoro-3-phenylquinazolin-4(3H)-one] returned a melting point of 269 to 271 °C. Moreover, the inhibition at 0.1 µM against PI3Kδ was 20 to 40%. The compound also returned an inhibition at 0.1 µM at PI3Kγ of 0 to 20%. Also, the inhibition at 1 µM against PI3Kα was 0 to 10%. The compound also gave an inhibition at 1 µM against PI3Kβ of 0 to 10%.

Take `C[C@H](c1cc2cccc(Cl)c2c(=O)n1-c1ccccc1)n1nc(-c2ccc(OC(F)F)c(F)c2)c2c(N)ncnc21` [Example 17b, (−)-3-(1-(4-amino-3-(4-(difluoromethoxy)-3-fluorophenyl)-1H-pyrazolo[3,4-d]pyrimidin-1-yl)ethyl)-8-chloro-2-phenylisoquinolin-1(2H)-one]: the melting point was 181 to 185 °C. On PI3Kδ, this compound registered a half-maximal inhibitory concentration (IC50) of 0.0456 µM and an inhibition at 0.1 µM of 80 to 100%. Also, at PI3Kγ, the midpoint of inhibition, the IC50, lay at 0.0473 µM and the inhibition at 0.1 µM was 80 to 100%. At PI3Kα, this compound returned an inhibition at 1 µM of 0 to 10%. The inhibition at 1 µM against PI3Kβ lay within 20 to 40%.

The compound `COc1ccc(-c2nn([C@H](C)c3cc4cccc(Cl)c4c(=O)n3-c3ccccc3)c3ncnc(N)c23)cc1NS(C)(=O)=O` [Example 20b, (−)—N-(5-(4-amino-1-(1-(8-chloro-1-oxo-2-phenyl-1,2-dihydroisoquinolin-3-yl)ethyl)-1H-pyrazolo[3,4-d]pyrimidin-3-yl)-2-methoxyphenyl)methanesulfonamide] showed a melting point of 180 to 183 °C. The same compound gave an inhibition at 0.1 µM against PI3Kδ of 20 to 40%. Moreover, the inhibition at 0.1 µM at PI3Kγ was in the range of 0 to 20%. The inhibition at 1 µM at PI3Kα fell in the range of 0 to 10%. This compound gave an inhibition at 1 µM at PI3Kβ of 20 to 40%.

The compound `Cc1n[nH]c2cc(-c3nn(C(C)c4cc5cccc(Cl)c5c(=O)n4-c4ccccc4)c4ncnc(N)c34)ccc12` (centres unmarked) [Example 21, 3-(1-(4-amino-3-(3-methyl-1H-indazol-6-yl)-1H-pyrazolo[3,4-d]pyrimidin-1-yl)ethyl)-8-chloro-2-phenylisoquinolin-1(2H)-one] gave a melting point of 289 to 291 °C. The compound further returned an inhibition at 0.1 µM at PI3Kδ of 80 to 100%. This compound also displayed an inhibition at 0.1 µM against PI3Kγ of 60 to 80%. For the same compound, at PI3Kα, the inhibition at 1 µM was 20 to 40%. In addition, the inhibition at 1 µM against PI3Kβ is 60 to 80%.

Consider `Cc1n[nH]c2cc(-c3nn([C@H](C)c4cc5cccc(Cl)c5c(=O)n4-c4ccccc4)c4ncnc(N)c34)ccc12` [Example 21b, (−)-3-(1-(4-amino-3-(3-methyl-1H-indazol-6-yl)-1H-pyrazolo[3,4-d]pyrimidin-1-yl)ethyl)-8-chloro-2-phenylisoquinolin-1(2H)-one], for which the melting point is 225 to 227 °C. Further, the inhibition at 0.1 µM on PI3Kδ is 80 to 100%. The compound also registered an inhibition at 0.1 µM on PI3Kγ of 40 to 60%. The inhibition at 1 µM against PI3Kα was 0 to 10%. For the same compound, the inhibition at 1 µM against PI3Kβ lay in the range of 10 to 20%.
